From US8658416B2, “Toxin-eating bacteria and bioremediation” (priority 2008, dated 2014)

What was measured:
[1] = Un-inoculated media controls monitored by HPLC (antibiotic stability in SCS medium); type: physicochemical; settings: 20 or 28 days, HPLC at 214 nm
Procedure: Representative isolates capable of growth on penicillin and carbenicillin as sole carbon source were selected for analysis of antibiotic removal from the growth media by High Performance Liquid Chromatography (HPLC). 2 μL of these cultures were re-inoculated into fresh SCS-antibiotic medium (5 mL) and allowed to grow for 28 days. Samples of the cultures and un-inoculated media controls were taken at regular intervals throughout the 28 day period and the catabolism of penicillin and carbenicillin was monitored at 214 nm by HPLC of filtered media from samples using a Hewlett Packard 1090 Liquid Chromatograph and a Vydac C-18 column. HPLC was performed at a flow rate of 0.3 mL/min with an acetonitrile gradient going from 5% to 65% in 30 minutes in the presence of 0.1% trifluoroacetic acid.

[2] = system: clonal bacterial isolates from 11 diverse soils; type: cell-based, soil bacteria; settings: antibiotic as sole carbon source at 1 g/L in SCS media pH 5.5, 22° C., positive growth at least 10^8 cells/mL
Procedure: The pH was adjusted to 5.5 using HCl, and the media was sterilized through a 0.22 μm filter. Solid medium was prepared by adding 15 g agar per liter of liquid SCS media followed by autoclaving before adding antibiotics.
Clonal isolates from the liquid cultures were obtained by plating cultures out on SCS-antibiotic agar medium and resulting single colonies were picked and re-streaked on corresponding plates. Three colonies each were then inoculated into fresh SCS-antibiotic liquid media (5 mL) to confirm clonal phenotype. Final culture growth was recorded after 1 month incubation without shaking at 22° C. and cultures with at least 10^8 cells/mL were assayed as positive growth.
All antibiotics used were purchased from Sigma-Aldrich at the highest purities available.

Row | SMILES | antibiotic peak in the un-inoculated control over the same time course [1] | soils from which clonal isolates capable of subsisting on the antibiotic were obtained [2]
1 | CC1(C)S[C@@H]2[C@H](NC(=O)C(C(=O)O)c3ccccc3)C(=O)N2[C@H]1C(=O)O (stereo partly drawn) [carbenicillin, Carbenicillin] | remained relatively unchanged | all the soils tested
2 | Cc1onc(-c2c(Cl)cccc2Cl)c1C(=O)N[C@@H]1C(=O)N2[C@@H]1SC(C)(C)[C@@H]2C(=O)O [dicloxacillin, Dicloxacillin] |  | 9 out of 11 soils
3 | CCn1cc(C(=O)O)c(=O)c2ccc(C)nc21 [nalidixic acid, Nalidixic acid] |  | a majority of the soils
4 | CC1(C)S[C@@H]2[C@H](NC(=O)Cc3ccccc3)C(=O)N2[C@H]1C(=O)O [penicillin, Penicillin G] | remained the dominant peak | all the soils tested
